Test results: BindingDB's records for patent US20250313563 (The Broad Institute, 2025)
“And” between values parts separate entries of the source, which are not always exact repeats. Equal entries are not always repeated.

Experiments:
[1] = target: Glycogen synthase kinase-3 alpha (Homo sapiens, UniProt P49840); test: TR-FRET Assay
In short: (§1)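 Kinase activity, measured after a 30-minute compound preincubation, was stopped with EDTA and quantified by TR-FRET using a Tb-labelled pSer641 antibody paired with streptavidin-d2.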

[2] = target: Glycogen synthase kinase-3 beta (Homo sapiens, UniProt P49841); test: TR-FRET Assay
Chain of Glycogen synthase kinase-3 beta (P49841 whole entry): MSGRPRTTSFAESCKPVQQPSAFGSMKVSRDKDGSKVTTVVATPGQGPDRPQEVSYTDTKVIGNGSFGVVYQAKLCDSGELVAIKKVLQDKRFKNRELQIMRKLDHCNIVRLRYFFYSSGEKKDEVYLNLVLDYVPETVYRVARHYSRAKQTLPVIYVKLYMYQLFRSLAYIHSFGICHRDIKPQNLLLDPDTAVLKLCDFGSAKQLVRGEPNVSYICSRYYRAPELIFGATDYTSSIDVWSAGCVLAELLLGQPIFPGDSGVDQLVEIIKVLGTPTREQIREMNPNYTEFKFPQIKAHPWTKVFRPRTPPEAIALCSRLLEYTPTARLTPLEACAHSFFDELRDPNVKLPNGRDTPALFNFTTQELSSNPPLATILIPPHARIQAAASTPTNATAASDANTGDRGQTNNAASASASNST
In short: as §1

Chain of Glycogen synthase kinase-3 alpha (P49840 whole entry): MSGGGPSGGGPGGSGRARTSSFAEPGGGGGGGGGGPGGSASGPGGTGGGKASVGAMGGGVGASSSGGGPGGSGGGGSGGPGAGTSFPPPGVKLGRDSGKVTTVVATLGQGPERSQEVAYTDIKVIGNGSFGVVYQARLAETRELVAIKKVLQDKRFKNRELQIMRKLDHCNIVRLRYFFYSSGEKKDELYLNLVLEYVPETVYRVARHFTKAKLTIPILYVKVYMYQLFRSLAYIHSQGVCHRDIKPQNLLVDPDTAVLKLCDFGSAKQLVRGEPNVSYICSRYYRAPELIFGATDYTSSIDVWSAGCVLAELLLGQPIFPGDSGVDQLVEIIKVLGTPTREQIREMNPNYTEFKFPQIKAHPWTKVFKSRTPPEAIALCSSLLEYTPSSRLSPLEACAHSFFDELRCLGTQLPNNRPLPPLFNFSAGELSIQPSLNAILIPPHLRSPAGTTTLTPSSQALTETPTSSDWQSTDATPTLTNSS

| SMILES | IC50 [1] | IC50 [2] |
| --- | --- | --- |
| CC[C@]1(c2cccc(-c3ccncc3F)c2)C2=C(CC(C)(C)CC2=O)NC2N=NC(C(F)(F)F)=C21 (some centres undefined) [US20250313563, Compound 947326] | < 100 nM | < 100 nM |
| CC[C@]1(c2cccc(-c3ccnc(C)c3)c2)C2=CN=NC2NC2=C1C(=O)N[C@]1(CCOC1)C2 (some centres undefined) [US20250313563, Compound 948141] | 1000 to 5000 nM | > 5000 nM |
| CC[C@@]1(c2cccc(-c3cnn4c3CCCC4)c2)C2=C(CC(C)(C)NC2=O)NC2N=NC(C(F)(F)F)=C21 (some centres undefined) [US20250313563, Compound 948775] | < 100 nM | < 100 nM and 100 to 1000 nM |
| CC[C@@]1(c2cccc(-c3c(C)nn(C)c3C)c2)C2=CN=NC2NC2=C1C(=O)NC(C)(C)C2 (some centres undefined) [US20250313563, Compound 947408] | < 100 nM and 100 to 1000 nM | < 100 nM and 1000 to 5000 nM |
| CC[C@@]1(c2cccc(-c3ccncc3C)c2)C2=CN=NC2NC2=C1C(=O)NC1(CCOCC1)C2 (some centres undefined) [US20250313563, Compound 948359] | < 100 nM and 100 to 1000 nM | < 100 nM and 1000 to 5000 nM |
| CCC1(c2cccc(N(C)C(=O)COC)c2)C2=CN=NC2NC2=C1C(=O)CC(C)(C)C2 (centres undefined) [US20250313563, Compound 889580] | < 100 nM | 100 to 1000 nM |
| CC[C@]1(c2cccc(-c3cn(C)nc3C)c2)C2=CN=NC2NC2=C1C(=O)NC(C)(C)C2 (some centres undefined) [US20250313563, Compound 945480] | 1000 to 5000 nM | > 5000 nM |
| CC[C@]1(c2ccccc2)C2=CN=NC2NC2=C1C(=O)CC1(CCC1)C2 (some centres undefined) [US20250313563, Compound 819573] | < 100 nM | 100 to 1000 nM |
| CC[C@@]1(c2cc(-c3cnn(C)c3)ccc2F)C2=CN=NC2NC2=C1C(=O)CC(C)(C)C2 (some centres undefined) [US20250313563, Compound 909223] | > 5000 nM | > 5000 nM |
| CC[C@@]1(c2cccc(-c3c(C)c(C)nn3C)c2)C2=CN=NC2NC2=C1C(=O)NC(C)(C)C2 (some centres undefined) [US20250313563, Compound 950062] | < 100 nM | 100 to 1000 nM |
| CCC1(c2cccc(-c3cnn(C)c3C)c2)C2=C(CC(C)(C)NC2=O)NC2N=NC(C(F)(F)F)=C21 (centres undefined) [US20250313563, Compound 947403] | < 100 nM | < 100 nM and 100 to 1000 nM |
| CC[C@@]1(c2cccc(-c3ccnc(C)c3)c2)C2=CN=NC2NC2=C1C(=O)C[C@H](C)C2 (some centres undefined) [US20250313563, Compound 932638] | > 5000 nM | > 5000 nM |
| CCC1(c2cccc(S(=O)(=O)C3CC3)c2)C2=C(CC(C)(C)NC2=O)NC2N=NC(C)=C21 (centres undefined) [US20250313563, Compound 947562] | < 100 nM | < 100 nM |
| CCC1(c2cccc(C(F)F)c2)C2=C(CC(C)(C)NC2=O)NC2N=NC(C)=C21 (centres undefined) [US20250313563, Compound 947865] | < 100 nM | < 100 nM |
| CC[C@@]1(c2cccc(-c3cc(C)nnc3C)c2)C2=C(CC(C)(C)NC2=O)NC2N=NC(C)=C21 (some centres undefined) [US20250313563, Compound 949333] | < 100 nM | 100 to 1000 nM |
| CC[C@@]1(c2cccc(-c3c(C)nn(C)c3C)c2)C2=C(CC(C)(C)CC2=O)NC2N=NC(C)=C21 (some centres undefined) [US20250313563, Compound 913026] | 100 to 1000 nM | 100 to 1000 nM |
| CC[C@@]1(c2cccc(C3CCCC3)c2)C2=CN=NC2NC2=C1C(=O)CC(C)(C)C2 (some centres undefined) [US20250313563, Compound 949399] | 1000 to 5000 nM | > 5000 nM |
| CC[C@]1(c2cccc(C(F)(F)F)c2)C2=CN=NC2NC2=C1C(=O)N(C)C(C)(C)C2 (some centres undefined) [US20250313563, Compound 826790] | 100 to 1000 nM | 1000 to 5000 nM |

| SMILES | IC50 [1] | IC50 [2] |
| --- | --- | --- |
| CC[C@@]1(c2cccc(N(C)c3cc(C)cc(C)n3)c2)C2=CN=NC2NC2=C1C(=O)CC(C)(C)C2 (some centres undefined) [US20250313563, Compound 945610] | < 100 nM | 100 to 1000 nM |
| CC[C@]1(c2cccc(-c3ccnc(C)c3C)c2)C2=CN=NC2NC2=C1C(=O)NC(C)(C)C2 (some centres undefined) [US20250313563, Compound 948188] | 1000 to 5000 nM | > 5000 nM |
| CC[C@@]1(c2cccc(-c3cc(C)nn3C)c2)C2=C(CC(C)(C)CC2=O)NC2N=NC(C(F)(F)F)=C21 (some centres undefined) [US20250313563, Compound 947384] | < 100 nM | < 100 nM and 100 to 1000 nM |
| CC[C@@]1(c2cccc(N(C)c3ccnc(OC)c3)c2)C2=CN=NC2NC2=C1C(=O)CC(C)(C)C2 (some centres undefined) [US20250313563, Compound 932662] | > 5000 nM | > 5000 nM |
| CCC1(c2cccc(-c3cc(C)ncn3)c2)C2=CN=NC2NC2=C1C(=O)CC(C)(C)C2 (centres undefined) [US20250313563, Compound 948089] | < 100 nM | 100 to 1000 nM |
| CC[C@@]1(c2cccc(N(C)c3nccc(C)n3)c2)C2=CN=NC2NC2=C1C(=O)CC(C)(C)C2 (some centres undefined) [US20250313563, Compound 945329] | 100 to 1000 nM | 1000 to 5000 nM |
| CC[C@@]1(c2cccc(OCC(F)F)c2)C2=CN=NC2NC2=C1C(=O)CC(C)(C)C2 (some centres undefined) [US20250313563, Compound 949113] | 1000 to 5000 nM | > 5000 nM |
| CCC1(c2cccc(Br)c2)C2=CN=NC2NC2=C1C(=O)NC(C)(C)C2 (centres undefined) [US20250313563, Compound 913439] | < 100 nM | 100 to 1000 nM |
| CC[C@]1(c2cccc(-c3cn(C)nc3C(C)C)c2)C2=CN=NC2NC2=C1C(=O)NC(C)(C)C2 (some centres undefined) [US20250313563, Compound 949106] | 1000 to 5000 nM | > 5000 nM |
| C[C@@H]1C[C@@H]2C[C@@]3(C[C@@H]2C1)C1=CN=NC1NC1=C3C(=O)CC(C)(C)C1 (some centres undefined) [US20250313563, Compound 943898] | < 100 nM | < 100 nM |
| CC[C@@]1(c2cccc(-c3ccncc3)c2)C2=C(CC(C)(C)CC2=O)NC2N=NC(C)=C21 (some centres undefined) [US20250313563, Compound 913015] | < 100 nM | < 100 nM |
| CC[C@]1(c2cccc(-c3cn(C)nc3C)c2)C2=CN=NC2NC2=C1C(=O)NC1(CCC1)C2 (some centres undefined) [US20250313563, Compound 950055] | < 100 nM | < 100 nM and 100 to 1000 nM |
| CC[C@]1(c2cccc(C3=C4CC=C(C)N=C4N=CC3)c2)C2=CN=NC2NC2=C1C(=O)NC(C)(C)C2 (some centres undefined) [US20250313563, Compound 948151] | 100 to 1000 nM | > 5000 nM |
| CC[C@@]1(c2ccccc2)C2=C(CC(C)(C)CC2=O)NC2N=NC(C(F)F)=C21 (some centres undefined) [US20250313563, Compound 874510] | 100 to 1000 nM | 100 to 1000 nM |
| CC[C@@]1(c2cccc(C(F)(F)F)c2)C2=CN=NC2NC2=C1C(=O)CC(C)(C)C2 (some centres undefined) [US20250313563, Compound 790755] | 100 to 1000 nM | > 1700 nM |
| CCC1(c2cccc(-c3ccn(C)n3)c2)C2=C(CC(C)(C)CC2=O)NC2N=NC(C)=C21 (centres undefined) [US20250313563, Compound 883999] | < 100 nM | < 100 nM |
| CC[C@@]1(c2cccc(N(C)c3ncccn3)c2)C2=C(CC(C)(C)NC2=O)NC2N=NC(F)=C21 (some centres undefined) [US20250313563, Compound 949648] | < 100 nM | < 100 nM and 1000 to 5000 nM |

Other lines, results leading:

| IC50 [1] | IC50 [2] | SMILES |
| --- | --- | --- |
| 100 to 1000 nM | 100 to 1000 nM | CC1(C)CC(=O)C2=C(C1)NC1=C(CN=N1)C21CN(CC(F)F)C1 [US20250313563, Compound 912073] |
| < 100 nM | < 100 nM | CC1(C)CC(=O)C2=C(C1)NC1=C(CN=N1)C21CCN(S(=O)(=O)C2=CC=C3CC=CC=C3N2)CC1 [US20250313563, Compound 947476] |
| > 5000 nM | > 5000 nM | CC[C@@]1(c2cccc(N3CCC3)c2)C2=CN=NC2NC2=C1C(=O)CC(C)(C)C2 (some centres undefined) [US20250313563, Compound 889632] |
| 1000 to 5000 nM | 100 to 1000 nM | CN1C[C@@]2(C3=C(CC(C)(C)CC3=O)NC3N=NC(C4CC(F)(F)C4)=C32)c2ccccc21 (some centres undefined) [US20250313563, Compound 119048] |
| 100 to 1000 nM | 100 to 1000 nM | CC1(C)CC(=O)C2=C(C1)NC1=C(CN=N1)C21CCN(S(=O)(=O)c2ccc(F)cn2)CC1 [US20250313563, Compound 947251] |
| 1000 to 5000 nM | 1000 to 5000 nM | CC1(C)CC(=O)C2=C(C1)NC1=C(CN=N1)C21CN(c2cccnc2)C1 [US20250313563, Compound 947813] |
| 1000 to 5000 nM | > 5000 nM | CC[C@@]1(c2cccc(-c3ccnc(C)c3)c2)C2=C(N=NC2)NC2=C1C(=O)C(C)(C)C2 [US20250313563, Compound 950283] |
| < 100 nM | < 100 nM | CCC1(c2cccc(-c3ccncc3C)c2)C2=CN=NC2NC2=C1C(=O)CC(C)(C)C2 (centres undefined) [US20250313563, Compound 913351] |
| < 100 nM | < 100 nM | Cc1cc(-c2cccc3c2CCC[C@@]32C3=CN=NC3NC3=C2C(=O)CC(C)(C)C3)ccn1 (some centres undefined) [US20250313563, Compound 945549] |
| 100 to 1000 nM | 1000 to 5000 nM | CC(C)(C)CC(=O)N1CC2(C1)CC1(CO2)C2=C(N=NC2)NC2=C1C(=O)CC(C)(C)C2 (centres undefined) [US20250313563, Compound 947301] |
| < 100 nM | < 100 nM | CCC1(c2cccc(N3CCOCC3)c2)C2=C(CC(C)(C)CC2=O)NC2N=NC(C(F)(F)F)=C21 (centres undefined) [US20250313563, Compound 810507] |
| 100 to 1000 nM | 100 to 1000 nM | CC1(C)CC(=O)C2=C(C1)NC1=C(CN=N1)C2(C)c1cccc(-c2ccccc2)c1 (centres undefined) [US20250313563, Compound 789513] |
| < 100 nM | 100 to 1000 nM | Cc1cccc2c1CCC21C2=C(N=NC2)NC2=C1C(=O)CC(C)(C)C2 (centres undefined) [US20250313563, Compound 806603] |
| < 100 nM | < 100 nM | COCc1cccc(S(=O)(=O)N2CCC3(CC2)C2=C(N=NC2)NC2=C3C(=O)CC(C)(C)C2)c1 [US20250313563, Compound 947605] |
| 100 to 1000 nM | 100 to 1000 nM | O=C1C[C@]2(CCOC2)CC2=C1C1(CCOCC1)C1=C(N=NC1)N2 [US20250313563, Compound 901476] |
| < 100 nM | < 100 nM and 100 to 1000 nM | CC1(C)CC(=O)C2=C(C1)NC1=C(CN=N1)C21CCN(S(=O)(=O)c2ccccc2OC(F)F)CC1 [US20250313563, Compound 945668] |
| 100 to 1000 nM | < 100 nM | CC(C)(C)CC1=C2C(N=N1)NC1=C(C(=O)CC(C)(C)C1)[C@]21CCCc2ccccc21 (some centres undefined) [US20250313563, Compound 811595] |
